In US20130197032A1, “[…] COMPOUNDS FOR THE TREATMENT OF NEUROLOGICAL AND […] DISORDERS” (A. CARLSSON RESEARCH AB, priority 2010, published 2013):
Like-named read-outs stand apart in the source and are kept apart here.

Experiments:
human 5-HT1E receptor = target: T1, human 5-HT1E receptor (Homo sapiens, UniProt P28566); test: R-SAT assay 5-HT1E; assay type: cell-based; details: Table 3, 5-HT1E; percent response of reference BRL 54443
T1 construct: expressed in transfected cells; host or cells: NIH/3T3
T1 sequence (P28566 whole entry): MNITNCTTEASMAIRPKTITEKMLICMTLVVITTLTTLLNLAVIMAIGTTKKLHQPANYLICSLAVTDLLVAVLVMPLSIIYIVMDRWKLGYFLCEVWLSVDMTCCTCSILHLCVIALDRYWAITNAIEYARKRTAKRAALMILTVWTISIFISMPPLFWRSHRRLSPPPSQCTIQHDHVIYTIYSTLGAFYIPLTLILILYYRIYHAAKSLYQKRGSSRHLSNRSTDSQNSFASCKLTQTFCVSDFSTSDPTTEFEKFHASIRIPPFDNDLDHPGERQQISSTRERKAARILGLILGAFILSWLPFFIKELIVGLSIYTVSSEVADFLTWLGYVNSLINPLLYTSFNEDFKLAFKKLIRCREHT

D2 receptors [1] = target: T2, D2 receptors (Homo sapiens, UniProt P14416); test: R-SAT functional assay at D2; assay type: cell-based; set-up: expressed in transfected cells; host or cells: NIH-3T3; details: for R-SAT Eff(%): percent response of reference ligand pergolide
T2 sequence (P14416 1-414 isoform P14416-2): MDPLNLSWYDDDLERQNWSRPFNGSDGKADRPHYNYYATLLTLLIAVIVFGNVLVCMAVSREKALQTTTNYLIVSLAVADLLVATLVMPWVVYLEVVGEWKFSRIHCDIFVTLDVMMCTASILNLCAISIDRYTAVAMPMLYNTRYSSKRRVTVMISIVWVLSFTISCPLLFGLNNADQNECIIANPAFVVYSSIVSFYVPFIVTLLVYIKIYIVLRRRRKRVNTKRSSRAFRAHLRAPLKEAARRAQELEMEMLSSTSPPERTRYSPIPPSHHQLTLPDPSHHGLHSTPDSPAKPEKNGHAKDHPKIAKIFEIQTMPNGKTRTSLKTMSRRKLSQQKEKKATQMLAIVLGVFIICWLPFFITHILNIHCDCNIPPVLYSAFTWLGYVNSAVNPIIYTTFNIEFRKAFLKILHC

human alpha1A receptor = target: T3, human alpha1A receptor (Homo sapiens, UniProt P35348); test: R-SAT assay α1A; assay type: cell-based; details: Table 3, α1A; percent response of reference Phenylephrine
T3 construct: expressed in transfected cells; host or cells: NIH/3T3 cells, transient transfection, pSI vector
T3 sequence (P35348 1-466): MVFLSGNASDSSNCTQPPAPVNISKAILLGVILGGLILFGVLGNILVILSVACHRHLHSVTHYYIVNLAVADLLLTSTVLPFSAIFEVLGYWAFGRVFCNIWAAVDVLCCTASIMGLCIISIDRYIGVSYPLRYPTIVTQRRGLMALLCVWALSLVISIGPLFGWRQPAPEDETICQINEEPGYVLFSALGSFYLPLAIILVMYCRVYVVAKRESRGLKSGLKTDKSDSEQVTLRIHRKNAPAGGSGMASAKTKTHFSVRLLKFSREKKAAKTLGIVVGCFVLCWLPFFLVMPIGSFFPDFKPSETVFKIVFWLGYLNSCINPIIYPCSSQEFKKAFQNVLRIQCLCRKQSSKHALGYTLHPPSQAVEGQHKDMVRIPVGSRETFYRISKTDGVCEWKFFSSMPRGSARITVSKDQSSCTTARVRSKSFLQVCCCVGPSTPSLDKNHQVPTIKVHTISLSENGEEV

human alpha2A receptor = target: T4, human alpha2A receptor (Homo sapiens, UniProt P08913); test: R-SAT assay α2A; assay type: cell-based; details: Table 3, α2A; percent response of reference UK 14,306
T4 construct: expressed in transfected cells; host or cells: NIH/3T3 cells, transient transfection, pSI vector
T4 sequence (P08913 whole entry): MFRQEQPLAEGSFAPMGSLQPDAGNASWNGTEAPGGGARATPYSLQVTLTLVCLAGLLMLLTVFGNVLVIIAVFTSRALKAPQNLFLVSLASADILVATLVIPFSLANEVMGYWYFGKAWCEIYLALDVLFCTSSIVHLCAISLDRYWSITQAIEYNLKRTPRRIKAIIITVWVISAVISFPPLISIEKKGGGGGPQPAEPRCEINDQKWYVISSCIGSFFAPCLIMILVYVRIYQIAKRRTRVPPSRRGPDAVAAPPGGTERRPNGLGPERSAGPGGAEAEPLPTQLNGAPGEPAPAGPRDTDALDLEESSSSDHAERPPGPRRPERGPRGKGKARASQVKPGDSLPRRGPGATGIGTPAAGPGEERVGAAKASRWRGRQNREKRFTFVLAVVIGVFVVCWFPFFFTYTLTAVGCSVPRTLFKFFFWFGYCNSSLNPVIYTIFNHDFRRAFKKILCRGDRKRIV

[2] = tested on: synthesis of dopamine in the striatum of the brain; details: Sonesson's thesis 1995; cited from earlier work
human alpha1B receptor = target: T5, human alpha1B receptor (Homo sapiens, UniProt P35368); test: R-SAT assay α1B; assay type: cell-based; details: Table 3, α1B; percent response of reference Phenylephrine
T5 construct: expressed in transfected cells; host or cells: NIH/3T3 cells, transient transfection, pSI vector
T5 sequence (P35368 1-520): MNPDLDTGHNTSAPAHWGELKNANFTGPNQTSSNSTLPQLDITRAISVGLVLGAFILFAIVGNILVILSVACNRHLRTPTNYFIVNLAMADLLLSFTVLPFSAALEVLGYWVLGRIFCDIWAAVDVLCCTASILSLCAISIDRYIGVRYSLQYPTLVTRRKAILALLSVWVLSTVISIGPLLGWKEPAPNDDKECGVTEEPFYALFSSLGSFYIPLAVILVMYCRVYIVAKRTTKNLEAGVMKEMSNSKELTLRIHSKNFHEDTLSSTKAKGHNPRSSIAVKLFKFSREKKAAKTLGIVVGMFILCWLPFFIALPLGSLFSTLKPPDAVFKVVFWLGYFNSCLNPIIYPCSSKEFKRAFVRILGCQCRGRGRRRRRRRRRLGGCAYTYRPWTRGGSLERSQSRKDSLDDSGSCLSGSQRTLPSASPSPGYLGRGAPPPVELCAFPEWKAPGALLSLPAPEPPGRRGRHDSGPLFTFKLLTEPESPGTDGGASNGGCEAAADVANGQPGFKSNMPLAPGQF

[3] = Sonesson's thesis 1995; cited from earlier work
drug naive mice = test: Head twitch induction in mice; assay type: in vivo; details: DOI 1 mg/kg ip, OSU6162 enantiomers 9.375-300 μmol/kg ip, 10 min before registration
Procedure: The animals used in the head twitch experiments were individually placed in Macrolon type II cages and allowed to habituate to these test cages during 30 minutes before the video registration of behavior began. […] The animals were videotaped for 10 minutes; the behavior was scored during the first 5 minutes. The number of head twitches was counted from the videotapes by a person blind to the treatment.
In FIG. 5, the number of head twitches produced during 5 minutes is shown. The mice were habituated to the test cages during 30 minutes before the video registration of behavior began. […] Shown are means and SEM, n=6-12.

human 5-HT2A receptors = human 5-HT2A receptors (Homo sapiens, UniProt P28223); test: Phosphatidyl inositol (PI) hydrolysis assay at 5-HT2A; assay type: cell-based; set-up: expressed in transfected cells; details: mean ± SEM; for EC50: negative logarithm of EC50 in molar (M), HEK 293T cells, read-out: PI Hydrolysis pEC50 (converted); for PI Hydrolysis Eff (%): percent response of reference ligand 5-HT
human 5-HT2A receptors, sequence (P28223 whole entry): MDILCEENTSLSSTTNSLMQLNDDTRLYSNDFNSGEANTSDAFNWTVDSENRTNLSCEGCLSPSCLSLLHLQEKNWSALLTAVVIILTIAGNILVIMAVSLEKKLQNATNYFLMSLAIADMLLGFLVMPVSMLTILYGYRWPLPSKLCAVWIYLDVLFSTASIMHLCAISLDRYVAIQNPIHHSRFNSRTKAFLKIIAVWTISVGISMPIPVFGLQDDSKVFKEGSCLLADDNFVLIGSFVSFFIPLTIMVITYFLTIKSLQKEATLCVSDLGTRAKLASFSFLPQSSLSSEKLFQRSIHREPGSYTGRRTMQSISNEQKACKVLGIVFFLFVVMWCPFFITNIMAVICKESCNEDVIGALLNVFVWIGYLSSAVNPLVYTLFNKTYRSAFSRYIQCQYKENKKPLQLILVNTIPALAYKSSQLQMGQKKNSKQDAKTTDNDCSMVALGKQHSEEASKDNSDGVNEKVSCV
Procedure: (§1) After lysing the cells with 50 μl of 0.1M formic acid, 20 μl each cell lysate was mixed with 80 μl (1 mg) RNA Binding YSi-SPA beads (GE Healthcare, Chalfont St. Giles, UK) on PICO plates (PerkinElmer) and counted on a TopCount (Packard).
Each curve is representative of at least three or more independent experiments.

human D5 receptor = target: T6, human D5 receptor (Homo sapiens, UniProt P21918); test: R-SAT assay D5; assay type: cell-based; details: Table 3, D5; percent response of reference SKF 38393
T6 construct: expressed in transfected cells; host or cells: NIH-3T3 (inferred: R-SAT host; D5 is in neither method list of b200)
T6 sequence (P21918 whole entry): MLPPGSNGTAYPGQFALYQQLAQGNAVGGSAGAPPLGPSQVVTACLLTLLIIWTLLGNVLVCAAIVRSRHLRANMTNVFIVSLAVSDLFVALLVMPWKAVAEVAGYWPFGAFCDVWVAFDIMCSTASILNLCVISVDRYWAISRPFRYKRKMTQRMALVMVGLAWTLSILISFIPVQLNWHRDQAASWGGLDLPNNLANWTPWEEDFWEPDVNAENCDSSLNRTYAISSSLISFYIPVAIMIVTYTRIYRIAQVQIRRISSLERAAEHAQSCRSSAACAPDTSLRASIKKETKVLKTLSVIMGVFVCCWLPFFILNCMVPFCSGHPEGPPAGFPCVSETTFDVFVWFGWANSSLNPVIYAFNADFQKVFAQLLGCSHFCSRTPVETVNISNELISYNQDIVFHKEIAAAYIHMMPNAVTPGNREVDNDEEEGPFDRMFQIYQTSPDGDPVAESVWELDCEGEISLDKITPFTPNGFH

human 5-HT7 receptor = target: T7, human 5-HT7 receptor (Homo sapiens, UniProt P34969); test: R-SAT assay 5-HT7; assay type: cell-based; details: Table 3, 5-HT7; percent response of reference 5-CT
T7 construct: expressed in transfected cells; host or cells: NIH/3T3
T7 sequence (P34969 whole entry): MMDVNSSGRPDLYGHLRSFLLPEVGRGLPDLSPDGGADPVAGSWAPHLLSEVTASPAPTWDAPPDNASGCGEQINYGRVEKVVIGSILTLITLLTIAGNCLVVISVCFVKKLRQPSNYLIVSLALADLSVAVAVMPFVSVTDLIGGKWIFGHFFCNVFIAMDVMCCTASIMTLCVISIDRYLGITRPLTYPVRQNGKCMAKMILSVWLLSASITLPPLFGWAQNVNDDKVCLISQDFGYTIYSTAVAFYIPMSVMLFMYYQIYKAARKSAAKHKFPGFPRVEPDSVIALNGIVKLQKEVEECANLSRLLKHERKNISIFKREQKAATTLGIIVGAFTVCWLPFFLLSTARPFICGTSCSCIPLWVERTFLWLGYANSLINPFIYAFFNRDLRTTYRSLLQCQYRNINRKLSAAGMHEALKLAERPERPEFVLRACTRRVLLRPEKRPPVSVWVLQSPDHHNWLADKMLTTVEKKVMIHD

[4] = clinical observation; cited from earlier work
human D3 receptor = target: T8, human D3 receptor (Homo sapiens, UniProt P35462); test: R-SAT assay D3; assay type: cell-based; details: Table 3, D3
T8 construct: expressed in transfected cells
T8 sequence (P35462 whole entry): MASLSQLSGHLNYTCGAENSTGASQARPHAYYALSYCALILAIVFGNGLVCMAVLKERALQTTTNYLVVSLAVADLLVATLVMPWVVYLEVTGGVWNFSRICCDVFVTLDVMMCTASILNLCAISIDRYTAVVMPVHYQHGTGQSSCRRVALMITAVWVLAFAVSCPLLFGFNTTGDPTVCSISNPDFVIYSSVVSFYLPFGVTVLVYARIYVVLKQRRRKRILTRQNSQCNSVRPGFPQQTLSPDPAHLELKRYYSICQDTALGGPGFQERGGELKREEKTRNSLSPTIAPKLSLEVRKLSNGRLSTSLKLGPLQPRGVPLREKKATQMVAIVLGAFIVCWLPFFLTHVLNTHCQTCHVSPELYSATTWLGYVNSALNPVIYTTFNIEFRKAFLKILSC

D2 receptors [5] = target: T2, D2 receptors; test: BRET2 functional antagonism of dopamine at D2 (Schild analysis); assay type: cell-based; set-up: expressed in transfected cells; host or cells: HEK-293T
Procedure: BRET-2 signals were measured using the multiplate reader Mithras 940LB (Berthold Technologies, Bad Wildbad, Germany) and were calculated as the ratio between the Renilla luciferase emission and the GFP2 emission corrected by the background emissions of non-transfected cells.
A Schild plot (B) was constructed using the EC50 values derived from the curves in (A). The Schild plot was fitted using linear regression in GraphPad Prizm.

5-HT2B receptors = 5-HT2B receptors (Homo sapiens, UniProt P41595); test: PI hydrolysis assay on 5-HT2B receptors
5-HT2B receptors, sequence (P41595 whole entry): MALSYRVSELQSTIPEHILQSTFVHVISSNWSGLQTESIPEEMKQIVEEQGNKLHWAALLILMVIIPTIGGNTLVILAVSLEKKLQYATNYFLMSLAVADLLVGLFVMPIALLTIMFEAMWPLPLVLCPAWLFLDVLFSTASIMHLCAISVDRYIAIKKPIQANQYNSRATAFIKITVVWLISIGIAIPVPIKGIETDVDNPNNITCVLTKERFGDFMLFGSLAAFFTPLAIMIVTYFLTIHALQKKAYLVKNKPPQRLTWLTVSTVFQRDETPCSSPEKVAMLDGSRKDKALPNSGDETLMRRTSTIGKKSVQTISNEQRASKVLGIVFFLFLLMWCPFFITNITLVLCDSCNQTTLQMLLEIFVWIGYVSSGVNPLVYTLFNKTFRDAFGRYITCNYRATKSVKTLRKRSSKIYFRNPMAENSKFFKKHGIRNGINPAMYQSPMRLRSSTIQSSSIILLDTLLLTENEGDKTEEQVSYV
Procedure: as §1

dopamine D2/D3 receptors = details: read-out: Ki, affinity for dopamine D2/D3 receptors; in vitro binding studies, background; cited from earlier work

CCCN1CCC[C@H](c2cccc(S(C)(=O)=O)c2)C1 [(+)-OSU6162, (3R)-3-[3-(methylsulfonyl)phenyl]-1-propylpiperidine]
Eff (%) (human 5-HT1E receptor): 5% | Emax at 50 µM (D2 receptors [1]; read-out: Eff (%), response at 50 μM): 77% | Emax at 50 µM (D2 receptors [1]; read-out: R-SAT Eff(%), response at 50 μM): 77% | Eff (%) (human alpha1A receptor): 22% | Eff (%) (human alpha2A receptor): 5% | synthesis of dopamine in the striatum of the brain [2]: weak increase in the synthesis of dopamine in the striatum of the brain | Eff (%) (human alpha1B receptor): 10% | change in behavioral activity [3]: not to induce any change in behavioral activity | head twitches produced during 5 minutes (drug naive mice): produced head twitches but to a lesser degree than DOI | EC50 (human 5-HT2A receptors): 2e-06 M | PI Hydrolysis Eff (%) (human 5-HT2A receptors): 82 ± 4%

CCCN1CCC[C@@H](c2cccc(S(C)(=O)=O)c2)C1 [(−)-OSU6162, (3S)-3-[3-(methylsulfonyl)phenyl]-1-propylpiperidine]
Eff (%) (human 5-HT1E receptor): 5% | R-SAT pEC50 (D2 receptors [1]; Table 2, negative logarithm of EC50 in molar, NIH3T3 cells, mean ± SEM): 6.1 ± 0.3 | EC50 (D2 receptors [1]; Table 2, negative logarithm of EC50 in molar, NIH3T3 cells, mean ± SEM, read-out: R-SAT pEC50 (converted)): 794 nM | R-SAT Eff(%) (D2 receptors [1]; Table 2, mean ± SEM): 30% | R-SAT Eff(%) (D2 receptors [1]; Table 2, mean ± SEM, listed as (−)-OSU-6162): 36 ± 3% | EC50 (D2 receptors [1]; Table 3, D2, negative logarithm of EC50 in molar, read-out: pEC50 (converted)): 794 nM | Eff (%) (D2 receptors [1]; Table 3, D2, percent response of reference Pergolide): 36% | Eff (%) (human D5 receptor): 10% | Eff (%) (human 5-HT7 receptor): 7% | Eff (%) (human alpha1A receptor): 15% | hallucinogenic activity [4]: no hallucinogenic activity | Eff (%) (human alpha2A receptor): 2% | EC50 (human D3 receptor; negative logarithm of EC50 in molar): 3980 nM | Eff (%) (human D3 receptor; percent response of reference Pergolide): 54% | slope of the Schild analysis (D2 receptors [5]; functional antagonism of dopamine in BRET2 assays): nearly unity | Kb (D2 receptors [5]; read-out: pKb from the Schild analysis (converted)): 1260 nM | Eff (%) (human alpha1B receptor): −1% | EC50 (5-HT2B receptors): 631 nM | efficacy in PI hydrolysis assays on 5-HT2B receptors (5-HT2B receptors; data not shown): 24% | head twitches produced during 5 minutes (drug naive mice): produced head twitches but to a lesser degree than DOI | EC50 (human 5-HT2A receptors): 1.26e-06 M | PI Hydrolysis Eff (%) (human 5-HT2A receptors): 65 ± 4% | Ki (dopamine D2/D3 receptors): 447 nM
